We go through one compound from US20240226217A9, “METHOD FOR EXTRACTING AND PURIFYING TOTAL FLAVONOIDS FROM CARTHAMUS TINCTORIUS L. LEAF (TFFCL), AND USE THEREOF” (Shaanxi University of Chinese Medicine, priority 2022, published 2024).

The subject of the test is mice with CCl4-induced chronic liver injury. The experiment in a line: CCl4-induced chronic liver injury in mice. It counts as in vivo. Particulars: 6 weeks. How it is done: SPF-grade male C57BL/6 mice were randomly divided into 5 groups, 12 mice in each group. The groups were a control group, a model group, a silibinin group (positive control group), a TFFCL low-dose group, and a TFFCL high-dose group. In addition to the control group, mice in the model group, positive control group, TFFCL low-dose group, and TFFCL high-dose group were intraperitoneally injected with 20% CCl4 (CCl4: olive oil=1:4, 2 mL/kg); mice in the control group were intraperitoneally injected with an equal amount of olive oil solution. Each group was injected twice a week for 6 weeks. The silibinin and TFFCL were separately suspended in 0.5% CMC-Na solution. The silibinin group, TFFCL-L group (low-dose), and TFFCL-H group (high-dose) were administered silibinin 100 mg/kg, TFFCL 20 mg/kg, and TFFCL 40 mg/kg by gavage, respectively; while the control group and the model group were intragastrically administered the same amount of 0.5% CMC-Na solution. Each group was given continuous intragastric administration once a day for 6 weeks. During the animal feeding, the body weight of mice was monitored and recorded weekly; 16 h after the last administration in the 6th week, blood was collected from the orbit of the mice, the liver and spleen of the mice were weighed and photographed, and wet weights of the liver and spleen were recorded. The organ index was calculated (organ index=organ mass/body mass×100%).

Regarding `COc1cc(C2Oc3cc([C@H]4Oc5cc(O)cc(O)c5C(=O)[C@@H]4O)ccc3OC2CO)ccc1O` (some centres unmarked) [Positive group, silibinin], the Liver index (silibinin 100 mg/kg by gavage once a day) is 4.42 ± 0.30 %. Under “silibinin 100 mg/kg”, the Spleen index is reported as 0.35 ± 0.02%, the “liver tissue CAT” value stood at 262.23 ± 73.45 U/mg, the “liver tissue GSH-PX” value is reported as 7.84 ± 3.75 U/mg and the “liver tissue MDA” value is 1.12 ± 0.28 nmol/mg. Also, for the setting “silibinin 100 mg/kg”, the “liver tissue SOD” value is reported as 9.33 ± 2.47 U/mg, the “serum ALT” value is listed as 80.58 ± 18.26 U/L, the “serum AST” value was found to be 226.58 ± 45.39 U/L and the “serum IL-1β” value is 152.13 ± 30.49 pg/mL. Moreover, under “silibinin 100 mg/kg”, the “serum IL-6” value is reported as 81.40 ± 15.12 pg/mL and the “serum TNF-α” value is given as 252.32 ± 34.16 pg/mL.
